Measurements published in paper PMC12858405, “Ideal efficacy photoswitching for chromocontrol of TRPC4/5 channel functions in live tissues” (Nature Chemical Biology, 2026).

Target: T1, EA-activated TRPC4 (Mus musculus, UniProt Q9QUQ5)
T1 construct: expressed in transfected cells; host or cells: HEK293-mTRPC4β-YFP
T1 sequence (Q9QUQ5 1-890 isoform Q9QUQ5-2): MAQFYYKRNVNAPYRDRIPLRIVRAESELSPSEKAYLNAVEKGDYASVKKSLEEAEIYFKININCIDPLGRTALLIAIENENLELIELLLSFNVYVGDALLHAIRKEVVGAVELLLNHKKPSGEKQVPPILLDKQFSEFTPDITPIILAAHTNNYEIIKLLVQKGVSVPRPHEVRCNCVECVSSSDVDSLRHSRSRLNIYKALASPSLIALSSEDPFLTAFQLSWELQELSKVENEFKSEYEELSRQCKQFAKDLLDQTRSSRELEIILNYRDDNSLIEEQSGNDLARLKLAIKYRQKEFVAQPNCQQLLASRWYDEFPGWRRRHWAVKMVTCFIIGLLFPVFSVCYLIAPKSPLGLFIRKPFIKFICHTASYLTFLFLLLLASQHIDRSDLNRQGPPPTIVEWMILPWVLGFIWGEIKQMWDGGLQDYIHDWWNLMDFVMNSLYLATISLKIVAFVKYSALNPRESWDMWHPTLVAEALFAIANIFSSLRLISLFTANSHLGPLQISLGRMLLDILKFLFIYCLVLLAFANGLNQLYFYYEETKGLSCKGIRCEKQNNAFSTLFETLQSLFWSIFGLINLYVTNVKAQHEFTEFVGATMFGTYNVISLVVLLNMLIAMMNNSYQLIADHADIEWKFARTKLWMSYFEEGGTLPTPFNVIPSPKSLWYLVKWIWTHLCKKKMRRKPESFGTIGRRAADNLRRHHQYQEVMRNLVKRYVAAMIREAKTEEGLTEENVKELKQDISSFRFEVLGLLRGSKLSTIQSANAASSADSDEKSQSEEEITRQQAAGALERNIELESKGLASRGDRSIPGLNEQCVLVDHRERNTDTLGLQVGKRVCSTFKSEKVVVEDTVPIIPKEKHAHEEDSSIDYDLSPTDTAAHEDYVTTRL
Assay: FLIPR Ca2+ assay, E isomers silencing EA-activated TRPC4 (HEK293-mTRPC4β-YFP)
Type: cell-based
Text: (2) The EC50 values are reported as the midpoints of unconstrained sigmoidal fits to the FLIPR data (Fig 1l and Supplementary Fig. 2): with different levels of channel activation / blocking and very different Hill slopes across different compounds, isomers, and the two channels. This argues that the midpoint values only capture one of the several important factors describing the […]
We believe that it is possible to derive indicative relative values for binding affinity comparing the E and Z isomers of the same compound using only the combination of FLIPR and ephys data as reported in this paper; this analysis is being developed in a separate paper (see also below).
Supplementary Table 1. Potencies on TRPC4/5 depicted as either simple agonistic potency (blue) or else inhibitory […]
. Z*-values refer to mostly-Z-isomer reached at PSS at 365 nm, E*-values refer to experiments that initially applied 100% E-isomer (thermally relaxed), though in both cases the Ca2+ imaging in FLIPR with Fluo4-AM uses 470 nm excitation, which may over time promote photoswitching towards a PSS that is intermediate between those of pure-365 nm and all-E; this is controlled for in the more reliable ephys measurements). (Table indices: a, data from ref7; b, data from ref2; c, data from ref3; d, data from ref8.) EC50 [nM] (for simple agonism or EA-competitive inhibition)
E-AzPico 90 (vs 30 nM EA) 67 (vs 30 nM EA) […]
orange: inhibitory effect ag.: agonistic effect
1.1.1 From always-active antagonists and agonists towards efficacy photoswitches […]
photoisomerising an azobenzene that is merged in at the C’4 position yielding the compounds […]
deliver (Fig. 1-2) is a powerful support for an efficacy switch interpretation. To indirectly support this further, we also measured the effects of E-AzPico and E-AzHC against EA-activated TRPC4/5. […]
to be an EA-competitive binder5,9,10), so their efficacy as single agent photoswitches results from E/Z-competitive binding that is determined by their PSS. […]
Supplementary Table 2. […] (a Inhibitory effect measured against 30 nM EA; b Inhibitory effect measured against 50 nM EA). […]

IC50 (Inhibitory IC50 (versus 30 nM EA) TRPC4, E isomer, thermally relaxed, 30 nM EA): 90 nM
IC50 (Inhibitory IC50 (versus 50 nM EA) TRPC4, E isomer, 50 nM EA): 86 nM
Compound: Cn1c(=O)n(CCCO)c(=O)c2c1nc(Oc1ccc(/N=N/c3ccccc3)c(OC(F)(F)F)c1)n2Cc1ccc(Cl)cc1 [E-AzPico]
